# In the METLIN SMRT retention time set (Domingo-Almenara et al. 2019):
# Experiment: gradient 5% acetonitrile 3 min, to 50% in 2 min, to 85% in 15 min, held 3 min, 100 µL/min
# Conditions: column: Zorbax Extend-C18 2.1 x 50 mm; eluents: water / acetonitrile, 0.1% formic acid
# Summary of the method: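 Pure standards were run in mixtures of ~100 molecules by HPLC coupled to a quadrupole time-of-flight mass spectrometer. The column was a Zorbax Extend-C18 (2.1 × 50 mm, 1.8 μm) at 100 μL/min, with water and acetonitrile each containing 0.1% formic acid, in positive and negative ionization mode. Dead and dwell volumes were 40 μL and 900 μL. Retention time was taken from computationally picked adduct peaks, each manually inspected, with data collected over 3 months.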
row,Structure (SMILES),RP-LC retention time
1,CN(C)CC(=O)N1CCC(Oc2nccnc2N(C)C)C1 (stereo not given),539 s
2,Cc1ccc(Sc2nccnc2N2CCCC(C(=O)N3CCN(c4ccccn4)CC3)C2)cc1 (stereo not given),768 s
3,CCOc1ccc2nc(C(=O)NC(CC)c3ccc(OC)cc3)cn2n1 (stereo not given),897 s
4,O=C(NCCCN1CCOCC1)c1ccc(OCc2nnc(C(=O)Nc3ccccc3F)s2)cc1,658 s
5,O=C(NC(c1ccccc1)c1nnc(N2CCCCC2)o1)c1ccco1 (stereo not given),774 s
6,COC(=O)C1=CN(CC(=O)N2CCN(c3ccccc3F)CC2)S(=O)(=O)N=C1C,908 s
7,O=C(NCc1ccccc1Cl)c1c(O)c2cccc3c2n(c1=O)CC3,1180 s
8,Cc1ccc(C)c(S(=O)(=O)N2c3ccccc3CC2c2nc(C(C)C)no2)c1 (stereo not given),1230 s
9,COc1ccc(Cl)cc1S(=O)(=O)N1CCC(C(=O)NCCCOC(C)C)CC1,804 s
10,O=C1CN(C(=O)CSc2ccccc2)c2ccccc2N1,694 s
11,O=C(N[C@H]1C[C@@H]2C[C@H]1CN2C(=O)NCCc1ccccc1)c1cccs1,716 s
12,CC(C)C(=O)Nc1ccc(-n2cnc(C(=O)NCc3ccc(Cl)cc3)c2)nc1,796 s
13,Cc1nccn1CC(=O)N1CCCn2cc(-c3cccc(C#N)c3)nc21,626 s
14,CCOC(=O)c1c(C)c(CCC(=O)NCCN2CCCCCC2)c(C)n1C,656 s
15,Cc1cccc(-c2noc(CN3C(=O)COc4ccc(Cl)cc43)n2)c1,1160 s
16,Cc1ccc(C)c(C(=O)CCC(=O)O)c1,818 s
17,CCOC(=O)CC1=CC(SCC(=O)N2CCC(C)CC2)=Nc2ccccc2N1,1150 s
18,COc1nc(N)nc2c1ncn2[C@@H]1O[C@H](CO)[C@@H](O)[C@@H]1O,568 s
19,Cc1ccc(-c2cc(C(=O)NCCCn3ccnc3)c3ccccc3n2)s1,684 s
20,CCc1noc(-c2ccc(-n3ncc(C(=O)NC4CCCCC4)c3C)nc2)n1,1020 s
21,Cc1ccc(C)c(S(=O)(=O)Nc2ccc(C(=O)Nc3ccccc3F)cc2)c1,863 s
22,O=C(Cn1nc2c3cc(Cl)ccc3ncn2c1=O)Nc1ccccc1,718 s
23,Cc1ccc(-n2ncc3c(=O)n(Cc4nc(-c5ccc(Br)cc5)no4)cnc32)cc1,1200 s

row,Structure (SMILES),RP-LC retention time
1,CCOC(=O)c1[nH]c(C)c(CCC(=O)N2CCC(C(=O)NCCc3ccccc3OC)CC2)c1C,812 s
2,CCOC(=O)c1cccc(NC(=O)CN2C(=O)C(C)(C)c3ccccc32)c1,900 s
3,CCCNC(=O)C1CCCN(c2ccc(SCC(=O)NCc3ccccc3)nn2)C1 (stereo not given),648 s
4,CCCCNC(=O)c1ccc2c(c1)NC(=O)C(CC(C)C)N2 (stereo not given),754 s
5,COc1ccc(Cl)cc1NS(=O)(=O)c1cc(-c2cc(C(F)(F)F)on2)sc1C,1220 s
6,COC(=O)c1nc(NC(=O)Cn2nc3c(cc2=O)CCCC3)sc1C,710 s
7,Cc1ccc(-n2nc(N3CCCC(C(=O)NCc4ccccc4F)C3)ccc2=O)cc1Cl (stereo not given),942 s
8,Cc1ccc(NC(=O)Nc2c(-c3ccc(F)cc3)nc3ccccn23)cc1,692 s
9,CCCNC(=O)c1ccc(CN2CC(=O)N3CCCCC3C2=O)cc1 (stereo not given),1120 s
10,COc1ccc(NC(=O)C2CCCN(c3cc(=O)n(C)c(=O)n3C)C2)cc1OC (stereo not given),637 s
11,COc1ccc(C)cc1NC(=O)C1CCN(S(C)(=O)=O)c2ccccc2O1 (stereo not given),994 s
12,O=C(Nc1cnc(-c2cccnc2)nc1)C1CCCC1,654 s
13,Cc1nc(-c2ccccc2)nc2c1CCC(=O)N2Cc1ccco1,1000 s
14,O=C(NCCC1CCN(C(=O)Nc2ccccc2F)CC1)c1ccoc1,713 s
15,O=C(Cn1nc(-c2ccccc2)c2cc(Cl)ccc21)NCc1cccnc1,712 s
16,O=C(Cc1csc(NC(=O)C2CCCC2)n1)NC1CCN(Cc2ccccc2)CC1,569 s
17,C[C@@H]1CC[C@H]2[C@H](C)[C@H]3CC[C@@]4(O)[C@@H]5CC(=O)[C@H]6CC(=O)CC[C@]6(C)[C@H]5C[C@H]4[C@@H]3CN2C1,636 s
18,COc1cccc(CNC(=O)c2cc3ccncc3n2C)c1OC,602 s
19,Cc1cccc(NC(=O)N2CCCC2c2nc(-c3ccccc3)no2)c1 (stereo not given),984 s
20,O=C1CCN(C(=O)Nc2ccccc2)CCOCCN1,613 s
21,COC(=O)c1c(C)[nH]c(C(=O)N2CCCC(C(=O)NCCN(C)C3CCCCC3)C2)c1C (stereo not given),626 s
22,O=C(CSc1nnc(CCc2nc3ccccc3[nH]2)o1)NCCc1ccc(Cl)cc1,601 s
23,O=C(c1cc(C2CC2)on1)N1CCCC1,718 s

row,Structure (SMILES),RP-LC retention time
1,COC(=O)c1sccc1NC(=O)N1CCCC1c1nc(-c2ccccc2)no1 (stereo not given),1050 s
2,CCc1nc(-c2ccc(-c3noc(CNC(=O)c4ccco4)n3)cc2)cs1,924 s
3,O=C(Nc1cccc(Cl)c1)Nc1c(-c2ccc(F)cc2)nc2ccccn12,730 s
4,Cc1ccc(C)c(N2CCN(CC(O)c3ccc4c(c3)OCO4)CC2)c1 (stereo not given),732 s
5,O=c1ccc(-c2ccc3c(c2)OCO3)nn1Cc1nc(-c2cccc(Cl)c2)no1,1040 s
6,COC(=O)c1[nH]c(C)c(C(=O)C(C)N(CC2CCCCC2)C(=O)c2ccc(F)cc2)c1C (stereo not given),1080 s
7,COc1cccc(-c2nc(C3CCN(S(=O)(=O)c4ccc(C)c(C)c4)CC3)no2)c1,1180 s
8,COc1cccc(-n2nnc(-c3nsc(Nc4ccccc4)n3)c2C)c1,990 s
9,Cc1ccc(C)c(CNC(=O)c2ccc3ncnc(N4CCCC4)c3c2)c1,678 s
10,CCOc1ccc(CN(CC)Cc2cc(=O)n3cc(Cl)ccc3n2)cc1,654 s
11,CCCCn1c(=O)c2ccccc2n(Cc2nc(-c3cccc(OCC)c3)no2)c1=O,1150 s
12,Cc1ccccc1N(C)C(=O)C1CCCN(c2ncnc3c2nc2n3CCCCC2)C1 (stereo not given),870 s
13,Cc1ccc(S(=O)(=O)c2cnc(N3CCN(c4cccc(Cl)c4)CC3)nc2N)cc1,1190 s
14,COc1cccc(-c2cc(C(=O)N3CCOCC3)[nH]n2)c1,658 s
15,CC(C)CC(=O)N1CCc2c(c(C(=O)N3CCCC(C(=O)Nc4ccccc4)C3)nn2C)C1 (stereo not given),747 s
16,COCCNC(=O)N1c2ccccc2CC1c1nc(C(C)C)no1 (stereo not given),836 s
17,COCCn1ccc2c(OCC(=O)N(C(C)C)C(C)C)cccc2c1=O,798 s
18,CCc1noc([C@@H]2CC(F)(F)CN2C(=O)c2cn(C)cn2)n1,644 s
19,O=S(=O)(c1ccc(Cl)cc1)N1CCC(c2nc(-c3ccccn3)no2)CC1,940 s
20,c1ccc(CN2CCN(Cc3cnoc3-c3ccccc3)CC2)cc1,689 s
21,COc1cc(-n2nnc(C(=O)NCc3ccco3)c2N)ccc1Cl,765 s
22,CCC1CCCCN1CCCNC(=O)CCc1cc2ccc(C)cc2[nH]c1=O (stereo not given),596 s
23,O=C(c1ccc(=O)n(CCN2CCOCC2)c1)N1CCC(Cc2ccccc2)CC1,637 s

row,Structure (SMILES),RP-LC retention time
1,O=C(Cc1cccn1-c1ccc(Cl)cc1)NCCCN1CCOCC1,625 s
2,NC(=O)C1(c2ccccc2F)CC1,681 s
3,Cc1cc(C)n(-c2ccccc2Cl)c(=O)c1C(=O)O,787 s
4,O=c1n(Cc2c(F)cccc2Cl)nc2ccc(S(=O)(=O)N3CCCCCC3)cn12,996 s
5,CCOCCCNC(=O)C(C)n1nc(C)c2c(C)n(-c3ccccc3)nc2c1=O (stereo not given),721 s
6,Cc1nc(-c2noc(-c3ccncc3)n2)cn1CC(=O)NCc1ccc(Cl)cc1,683 s
7,O=C(CSc1ccncc1)N1CCc2cc(-c3csc(C4CC4)n3)ccc21,723 s
8,Cc1ccc(C)c(NC(=O)c2cc(C)nn2-c2ccccc2)c1,916 s
9,O=C(Nc1cc(F)ccc1F)c1ccc(=O)n(Cc2cccc(C(F)(F)F)c2)c1,861 s
10,C[C@H]1CN(C(=O)c2ccc3ccccc3n2)C[C@@H]1c1nc(-c2cccnc2)no1,821 s
11,COc1ccc(-c2noc(-c3c(SC)nn(CC(=O)Nc4ccccc4)c3N)n2)cc1,934 s
12,O=C(c1ccoc1)N1CCCC1c1nc(-c2cccc(C(F)(F)F)c2)no1 (stereo not given),996 s
13,CN1CCCCCCN(C(=O)C2(c3ccccc3)CC2)[C@H]2CCC[C@H]2C1=O,958 s
14,Cc1oc2ccn(C)c(=O)c2c1C(=O)NCc1ccccc1Br,914 s
15,CCCCS(=O)(=O)N1CCN(c2nc(N3CCOCC3)nc(-n3ccnc3)n2)CC1,604 s
16,CCn1c(N2CCCC(C(=O)NCCCN3CCCc4ccccc43)C2)cc(=O)n(C)c1=O (stereo not given),847 s
17,O=C(NCc1ccc(Cl)cc1)c1cccn1-c1cccnc1,742 s
18,COc1ccc(CCC(=O)NCC2CCN(C(=O)NC(C)(C)C)CC2)cc1,687 s
19,Cc1noc(C2CN(C(=O)Nc3ccc(Cl)cc3C)CC23CCOCC3)n1 (stereo not given),792 s
20,O=C(COc1ccc(-c2cnc3ccccc3n2)cc1)NCCN1CCCC1,623 s
21,COc1ccc(CCNC(=O)C2CCN(S(C)(=O)=O)c3cc(Cl)ccc3O2)cc1 (stereo not given),889 s
